The source of these data is patent US20260240810A1, “COMPOSITIONS AND METHODS FOR REDUCING ADVERSE SIDE EFFECTS IN CANCER TREATMENT” (priority 2022, published 2026).

The nature of the data set: Pharmacokinetics, RRx-001-GSH in plasma as surrogate for drug exposure. In kind it is in vivo. On the procedure:
RRx-001 reacted nonenzymatically and covalently with reduced glutathione (GSH), and with the β93Cys residue of hemoglobin, forming RRx-001-GSH and RRx-001-hemoglobin metabolites, respectively. Given the rapid conversion of the RRx-001 parent molecule to GSH and hemoglobin conjugates, RRx-001-GSH, being the predominant measurable metabolite in the plasma, was chosen as a surrogate for drug exposure. Terminal half-life of RRx-001-GSH was calculated as approximately 30 minutes.

On to `NC(CCC(=O)NC(CSCC(=O)N1CC([N+](=O)[O-])([N+](=O)[O-])C1)C(=O)NCC(=O)O)C(=O)O` (centres unmarked) [RRx-001-GSH], for which, where the note is “doses up to 55 mg/m^2 in phase 1”, the “area under the plasma concentration-time curve and maximum plasma concentration, dose proportionality” value is reported as “mostly dosed proportional”. For the same compound, the “Terminal half-life of RRx-001-GSH” value (plasma) was “approximately 30 minutes”.
